Non-standard residues stand in square brackets, D forms with d. Residues, ends and D or L forms follow the SMILES beside them. 2Nal = N[C@@H](Cc1ccc2ccccc2c1)C(=O)O; β3hL = CC(C)C[C@H](N)CC(=O)O; Nle = CCCC[C@H](N)C(=O)O; βAla = NCCC(=O)O
Columns and labels:
[1] = target: T1, recombinant hPTH1-receptor (Homo sapiens, UniProt Q03431); test: Stimulation of adenylyl cyclase activity in HEK293/C21 cells; assay type: cell-based; details: 1 mM IBMX, 5 min incubation, read-out: EC50 (half maximal stimulation of adenylate cyclase)
T1 construct: expressed in transfected cells
T1 sequence (Q03431 27-593): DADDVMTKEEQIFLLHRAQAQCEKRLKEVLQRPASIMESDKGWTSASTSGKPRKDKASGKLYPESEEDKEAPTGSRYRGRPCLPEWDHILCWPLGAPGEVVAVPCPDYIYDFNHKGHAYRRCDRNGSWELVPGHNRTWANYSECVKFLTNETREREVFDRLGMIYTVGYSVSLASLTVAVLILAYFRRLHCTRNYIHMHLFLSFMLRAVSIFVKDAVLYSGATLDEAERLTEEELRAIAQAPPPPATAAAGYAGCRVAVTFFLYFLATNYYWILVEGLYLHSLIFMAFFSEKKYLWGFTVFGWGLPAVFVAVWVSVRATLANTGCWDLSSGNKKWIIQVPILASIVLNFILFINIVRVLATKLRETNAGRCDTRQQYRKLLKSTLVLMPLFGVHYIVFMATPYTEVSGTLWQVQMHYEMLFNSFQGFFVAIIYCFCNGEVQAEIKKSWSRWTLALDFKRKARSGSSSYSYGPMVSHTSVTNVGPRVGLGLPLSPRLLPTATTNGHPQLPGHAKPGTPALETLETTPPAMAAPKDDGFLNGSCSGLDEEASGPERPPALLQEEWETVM
Method: (§1) Human embryonic kidney (HEK293) cells, stably transfected with recombinant hPTH1-receptor (HEK293/C21 cell line, ˜400,000 receptors/cell) (Pines, M., Adams, A. E., Stueckle, S., Bessalle, R., Rashti-Behar, V., Chorev, M., Rosenblatt, M., and Suva, L. J. Endocrinology 1994, 135, 1713-1716), were maintained in D-MEM medium supplemented with 10% fetal bovine serum and […] glutamine at 37° C. in a humidified atmosphere of 95% air/5% CO2. The medium was changed every 3-4 days, and the cells were subcultured every week. Ligand stimulated adenylyl cyclase activity and radioreceptor competition binding assays were performed on confluent cultures, 1-3 days after a change of medium.
Stimulation of adenylyl cyclase activity by the PTH(1-34) analogues was assayed in stably transfected HEK293/C21 as described before (Nakamoto, C., Behar, V., Chin, K. R., Adams, A. E.; Suva, L. J.; Rosenblatt, M.; Chorev, M. Biochemistry 1995, 34, 10546-10552.). Shortly, cells were grown to confluence in 24-well culture dishes. They were then incubated with 0.5 μCi [^3H]adenine in fresh PBS supplemented medium at 37° C. for 2 h and further treated with 1 mM 3-isobutyl-1-methylxantine (IBMX) in fresh medium for 15 min at 37° C. […] Radioactivity was measured in a liquid scintillation counter (Beciman LS6000IC liquid scintillation counter, Downers Grove, Ill.).

[2] = target: T1, recombinant hPTH1-receptor; test: Radioreceptor competition binding, 125I-PTH(1-34), HEK293/C21 cells; details: 125I-PTH(1-34) ~0.1 nM, 2 h at room temperature
Method: as §1
[Nle^8,18,Nal^23,Tyr^34]bPTH(1-34)-NH2 was radioiodinated and the crude material was purified as previously described (Roubini, E., Duong, L. T., Gibbons, S. W., Leu, C. T., Caulfield, M. P., Chorev, M., and Rosenblatt, M. Biochemistry 1992, 31, 4026-4033). […] The pure mono-radioiodinated peptide was isolated on an analytical RP-HPLC Vydac Protein C18 column (The Separation Group, Hesperia, Calif.) employing a linear gradient of 36-42% B in A for 30 min (A, 0.1% TFA in water; B, 0.1% TFA in acetonitrile) at a flow rate of 1 mL/min, and monitored at 220 nm. […]

| EC50 [1] [nM] | IC50 [2] [nM] | Compound |
| --- | --- | --- |
| 13.82 ± 0.02 | > 1000 | CCCC[C@H](NC(=O)[C@H](Cc1ccccc1)NC(=O)[C@H](CCC(N)=O)NC(=O)[C@@H](NC(=O)[C@H](CCC(=O)O)NC(=O)[C@H](CO)NC(=O)[C@@H](NC(=O)[C@H](C)N)C(C)C)[C@@H](C)CC)C(=O)N[C@@H](Cc1c[nH]cn1)C(=O)N[C@@H](CC(N)=O)C(=O)N[C@@H](CC(C)C)C(=O)NCC(=O)N[C@@H](CCCCN)C(=O)N[C@@H](Cc1c[nH]cn1)C(=O)N[C@@H](CC(C)C)C(=O)N[C@@H](CO)C(=O)N[C@@H](CO)C(=O)NCCC(=O)NCCC(=O)N[C@@H](CCCNC(=N)N)C(=O)N[C@H](C(=O)N[C@@H](CCC(=O)O)C(=O)N[C@@H](Cc1ccc2ccccc2c1)C(=O)N[C@@H](CC(C)C)C(=O)N[C@@H](CCCNC(=N)N)C(=O)N[C@@H](CCCCN)C(=O)N[C@@H](CCCCN)C(=O)N[C@@H](CC(C)C)C(=O)N[C@@H](CCC(N)=O)C(=O)N[C@@H](CC(=O)O)C(=O)N[C@H](C(=O)N[C@@H](Cc1c[nH]cn1)C(=O)N[C@@H](CC(N)=O)C(=O)N[C@@H](Cc1ccc(O)cc1)C(N)=O)C(C)C)C(C)C [SEQ ID NO: 14, [Nle^8,β-Ala^18,19,Nal^23,Tyr^34]bPTH(1–34)NH2] (H-AVSEIQF[Nle]HNLGKHLSS[βAla][βAla]RVE[2Nal]LRKKLQDVHNY-NH2; N-terminus assumed) |
| – | > 1000 | CCCC[C@H](NC(=O)[C@H](Cc1ccccc1)NC(=O)[C@H](CCC(N)=O)NC(=O)[C@@H](NC(=O)[C@H](CCC(=O)O)NC(=O)[C@H](CO)NC(=O)[C@@H](NC(=O)[C@H](C)N)C(C)C)[C@@H](C)CC)C(=O)N[C@@H](Cc1c[nH]cn1)C(=O)N[C@@H](CC(N)=O)C(=O)N[C@@H](CC(C)C)C(=O)NCC(=O)N[C@@H](CCCCN)C(=O)N[C@@H](Cc1c[nH]cn1)C(=O)N[C@@H](CC(C)C)C(=O)N[C@@H](CO)C(=O)NCCC(=O)N[C@H](CC(=O)NCCC(=O)N[C@@H](CCCNC(=N)N)C(=O)N[C@H](C(=O)N[C@@H](CCC(=O)O)C(=O)N[C@@H](Cc1ccc2ccccc2c1)C(=O)N[C@@H](CC(C)C)C(=O)N[C@@H](CCCNC(=N)N)C(=O)N[C@@H](CCCCN)C(=O)N[C@@H](CCCCN)C(=O)N[C@@H](CC(C)C)C(=O)N[C@@H](CCC(N)=O)C(=O)N[C@@H](CC(=O)O)C(=O)N[C@H](C(=O)N[C@@H](Cc1c[nH]cn1)C(=O)N[C@@H](CC(N)=O)C(=O)N[C@@H](Cc1ccc(O)cc1)C(N)=O)C(C)C)C(C)C)CC(C)C [SEQ ID NO: 17, [Nle^8,β-Ala^17,19,β-hLeu^18,Nal^23,Tyr^34]bPTH(1–34)NH2] (H-AVSEIQF[Nle]HNLGKHLS[βAla][β3hL][βAla]RVE[2Nal]LRKKLQDVHNY-NH2; N-terminus assumed) |
